Reference: BindingDB's records for doi:10.1016/j.bmcl.2010.03.025 (Wyeth Research, 2010)

Molecular target: 3-phosphoinositide-dependent protein kinase 1 (PDPK1) (Homo sapiens) (UniProt O15530)
Assay: Inhibition of PDK1

## COc1cc(Nc2c(C#N)cnc3cc(/C=C/CCN4CCN(C)CC4)c(OC)cc23)c(Cl)cc1Cl [(E)-4-(2,4-dichloro-5-methoxyphenylamino)-6-methoxy-7-(4-(4-methylpiperazin-1-yl)but-1-enyl)quinoline-3-carbonitrile]
  IC50: > 10 µM
